Target: T1, receptor BlaR-CTD (Bacillus licheniformis, UniProt P12287)
T1 construct: the receptor BlaR-CTD is the carboxy-terminal region of BlaR
Test: 9-minute test: strip test for β-lactam antibiotics in milk using BlaR-CTD
Assay type: binding
Details: in 9 minutes; positive when first band is less intense than second band
Description: According to a preferred embodiment of the invention an identifier is used which comprises a receptor sensitive to antibiotics having a β-lactam ring, which receptor is obtained from Bacillus licheniformis, such as the receptor BlaR or the receptor BlaR-CTD. The isolation and the peptide sequence of the protein BlaR are described in Y. Zhu et al., J. Bacteriol., 1137-1141 (1990); the receptor BlaR-CTD is the carboxy-terminal region of BlaR, whose isolation and peptide sequence are described in B. Joris et al., FEMS Microbiology Letters, 107-114 (1990).
This example illustrates the detection in milk of antibiotics having a β-lactam ring which are monitored by the health authorities. The test described in this example uses the receptor BlaR-CTD coupled with gold beads, which serve as labelling agents, and uses a support which is in the form of an assay device comprising a solid support on which membranes are fixed.
3.79 ml of a solution of recognition agent BlaR-CTD having a concentration of 6.6 mg/ml are taken up in a sodium phosphate buffer, 20 mM pH 7. To this solution of BlaR-CTD are then added 41.71 ml of bicarbonate buffer (0.1 M sodium bicarbonate, pH 9) and 2 ml of a solution of N-hydroxysuccinimide 6-(biotinamido)caproic ester containing 2.23 mg/ml likewise of bicarbonate buffer. This solution is stirred gently on a LABINCO stirrer for tubes on a rotary axis (available from VEL, Belgium) at a rate of 2 revolutions/minute for 2 hours at ambient temperature and away from light. 2.5 ml of a solution of Tris buffer, 1 M pH 8 are incubated with the reaction mixture under the same conditions for 30 minutes. The solution thus obtained is dialysed against HNM buffer (Hepes 100 mM, pH 8, NaCl 100 mM, MgCl2 50 mM) for 24 hours. In this way a biotinylated BlaR-CTD solution is obtained which is diluted in HNM-BSA buffer (Hepes 500 mM, pH 8, NaCl 500 mM, MgCl2 250 mM, BSA 10 mg/ml) to a concentration of 250 μg of biotinylated BlaR-CTD per ml of buffer. This solution is stored at −20° C.
The biotinylated BlaR-CTD solution prepared in Example 3.1.1 is diluted 114.7 times with the HNM-BSA buffer (Hepes 500 mM, pH 8, NaCl 500 mM, MgCl2 250 mM, BSA 10 mg/ml). At room temperature, 22.5 parts by volume of this dilute biotinylated BlaR-CTD solution, 7.5 parts by volume of HNM-BSA buffer, 9.27 parts by volume of the gold particle suspension used to label the biotinylated BlaR-CTD and 6 parts by volume of reference gold particle suspension are mixed (see Example 3.1.4 below).
The first capture substance makes it possible to fix the BlaR-CTD coupled with the gold beads present in excess relative to the quantity of antibiotic present in the sample.
Assay devices containing membranes (2), (3) and (4) are used, assembled in accordance with the procedure described in Example 1.1. The membrane (3) of these devices carries on the proximal side the capture substance described in Example 32.1. and on the distal side the capture substance described in Example 3.2.2. The capture substances were deposited in accordance with the procedure described in Example 1.2.
Six samples of fresh milk are prepared, containing 0; 4; 6; 8; 10 and 12 ppb, respectively, of cephapirin. Each of these solutions is then analysed as follows.
An aliquot is taken of 200 μl of milk sample and 45.27 μl of solution prepared in Example 3.1.3, and is placed in a glass flask. This mixture is incubated at 47° C. for 7 minutes. An assay device is taken and is placed vertically in the glass flask such that the first end of the assay device is in contact with the mixture in such a way that the second end rests on the wall of the glass flask. The mixture is allowed to migrate over the assay device while the assembly is incubated at 47° C. for 2 minutes.
An intensity value ranging from 0 to 10 is awarded to the bands detected, the value 10 being given to the most intense band and the value 0 being given to the least intense band. On this scale, a value of 6 is awarded to the reference band. […]

T1 sequence (P12287 340-601): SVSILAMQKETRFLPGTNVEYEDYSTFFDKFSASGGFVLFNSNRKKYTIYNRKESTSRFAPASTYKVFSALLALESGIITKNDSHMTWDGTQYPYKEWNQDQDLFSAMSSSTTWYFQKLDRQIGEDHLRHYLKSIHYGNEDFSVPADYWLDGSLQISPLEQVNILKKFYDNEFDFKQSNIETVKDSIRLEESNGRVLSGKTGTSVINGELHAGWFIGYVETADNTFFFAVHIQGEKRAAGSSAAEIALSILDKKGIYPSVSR

## CC1(C)S[C@@H]2[C@H](NC(=O)Cc3ccccc3)C(=O)N2[C@H]1C(=O)O [Penicillin G, penicillin G]
  lowest concentration detected in a milk sample: 3 ppb
